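Each compound was tested at five concentrations against cells in 96-well plates for 48 hours. TGI is the concentration that stops growth completely.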
Tests used:
Assay in all cases: DTP human tumour cell line panel, 48 h
786-0 renal = tested on: 786-0 renal
CCRF-CEM leukemia = tested on: CCRF-CEM leukemia
DU-145 prostate = tested on: DU-145 prostate
EKVX NSCLC = tested on: EKVX NSCLC
HCT-15 colon = tested on: HCT-15 colon
HOP-62 NSCLC = tested on: HOP-62 NSCLC
HT29 colon = tested on: HT29 colon
MOLT-4 leukemia = tested on: MOLT-4 leukemia
NCI-H522 lung = tested on: NCI-H522 lung
SF-268 CNS = tested on: SF-268 CNS
SF-295 CNS = tested on: SF-295 CNS
SK-MEL-5 melanoma = tested on: SK-MEL-5 melanoma
SNB-75 CNS = tested on: SNB-75 CNS
T-47D breast = tested on: T-47D breast
TK-10 renal = tested on: TK-10 renal
U251 CNS = tested on: U251 CNS
UO-31 renal = tested on: UO-31 renal
A498 renal = tested on: A498 renal
MALME-3M melanoma = tested on: MALME-3M melanoma

Compound	TGI (786-0 renal) [µM]	TGI (CCRF-CEM leukemia) [µM]	TGI (DU-145 prostate) [µM]	TGI (EKVX NSCLC) [µM]	TGI (HCT-15 colon) [µM]	TGI (HOP-62 NSCLC) [µM]	TGI (HT29 colon) [µM]	TGI (MOLT-4 leukemia) [µM]	TGI (NCI-H522 lung) [µM]	TGI (SF-268 CNS) [µM]	TGI (SF-295 CNS) [µM]	TGI (SK-MEL-5 melanoma) [µM]	TGI (SNB-75 CNS) [µM]	TGI (T-47D breast) [µM]	TGI (TK-10 renal) [µM]	TGI (U251 CNS) [µM]	TGI (UO-31 renal) [µM]	TGI (A498 renal) [µM]	TGI (MALME-3M melanoma) [µM]
O=C(CN1CCCC1)Nc1ccc2sc3ccccc3c(=O)c2n1	48.1	48.2	> 100	> 100	> 100	65	> 100	15.6	36	85.9	67.8	53.4	60	> 100	> 100	46.3	27.9	–	–
COC1=CC(=O)C2[C@H]3Cc4ccccc4[C@H]3C2(C)C1=O (stereo not given in full)	> 100	> 100	–	> 100	> 100	> 100	> 100	> 100	> 100	> 100	> 100	> 100	> 100	–	> 100	> 100	> 100	> 100	> 100
O=C1CSc2ccncc2N1	> 100	> 100	–	> 100	> 100	> 100	> 100	> 100	–	> 100	> 100	> 100	> 100	–	> 100	> 100	> 100	> 100	> 100
CC(C)C(/C=C/c1ccc(Cl)cc1)=N\NC(=S)NN	> 100	13.7	> 100	–	> 100	> 100	> 100	> 100	32.4	> 100	> 100	> 100	91.8	> 100	> 100	> 100	> 100	> 100	> 100
CC(=O)OCC(OC(C)=O)C(OC(C)=O)C(OC(C)=O)C(/C=N\Nc1nc2ccccc2c(=O)[nH]1)OC(C)=O (stereo not given)	> 100	> 100	> 100	> 100	> 100	> 100	> 100	> 100	> 100	> 100	> 100	> 100	> 100	> 100	–	> 100	> 100	–	> 100
CC1(c2nc3cc(Cl)c(Cl)cc3[nH]2)CCC(C(=O)O)C(C)(C)O1 (stereo not given)	> 100	> 100	> 100	> 100	> 100	> 100	> 100	> 100	> 100	> 100	> 100	> 100	> 100	> 100	> 100	> 100	> 100	–	> 100
O=C(NO)c1ccc(OCc2ccccc2)cc1	55.3	> 100	68.9	> 100	45	> 100	> 100	> 100	51.5	> 100	> 100	> 100	> 100	81.5	> 100	> 100	72.8	43.4	–
COc1ccc(N=C2C(=Nc3ccc(OC)cc3)N(c3ccccc3[N+](=O)[O-])C(=S)N2c2ccc(OC)cc2)cc1	> 100	–	> 100	> 100	> 100	> 100	–	> 100	> 100	> 100	> 100	> 100	> 100	> 100	> 100	> 100	> 100	–	–
COc1ccc(C2Oc3c(cccc3OC)C=C2[N+](=O)[O-])cc1 (stereo not given)	4.98	> 100	16.4	25.6	5.81	5.8	4.59	6.86	3.02	11.3	16.3	2.93	–	27.7	7.5	3.76	3.14	–	10
CO/N=C/c1c(-c2ccc(Cl)cc2)c(/C=N/OC)n2c1sc1ccccc12	> 100	> 100	> 100	> 100	> 100	> 100	> 100	> 100	> 100	> 100	> 100	> 100	> 100	> 100	> 100	> 100	> 100	–	> 100
Clc1ccc(N=Cc2cc3cc(Br)ccc3nc2Cl)cc1	> 50	32.5	> 50	> 50	> 50	–	> 50	> 50	> 50	> 50	–	45.2	> 50	> 50	–	–	> 50	–	> 50
N.N.N.N.O=S(=O)([O-])[O-].[Co+3].[OH3+].[OH3+]	> 100	> 100	–	> 100	> 100	> 100	> 100	> 100	> 100	> 100	> 100	> 100	> 100	–	> 100	> 100	> 100	> 100	> 100
O=C1/C(=C/c2cccc3ccccc23)Cc2ccccc21	48.3	> 100	–	> 100	> 100	–	> 100	> 100	–	65.7	–	> 100	> 100	–	> 100	52	> 100	> 100	–
O=C1c2ccc3ccccc3c2CCC1N1CCCCC1 (stereo not given)	32.1	–	30.3	51.7	37.4	34	39	–	35.7	39.7	37.9	30.7	34.3	54.3	29.6	33.1	29.1	–	31.4
Cc1cc2nc3c(C#N)c(-c4ccccc4)cc(Nc4cccc(C(F)(F)F)c4)n3c2cc1C	18.6	> 100	–	37.9	22.3	35.2	–	–	30.1	61.2	44.6	19.8	72.9	> 100	33.6	–	25.8	29.5	> 100
CC1CC(=O)NC2CC1C2(C)C (stereo not given)	> 100	> 100	> 100	–	> 100	–	> 100	> 100	> 100	> 100	> 100	> 100	> 100	> 100	> 100	> 100	> 100	–	> 100
CCCN1CN(C(C(=O)N[C@@H]2C(=O)N3C(C(=O)O)=C(C)CSC23)c2ccccc2)CSC1=S (stereo not given in full)	> 100	> 100	–	> 100	> 100	> 100	> 100	> 100	> 100	> 100	> 100	> 100	> 100	–	> 100	> 100	> 100	> 100	> 100
Cc1c(C)c2ccc(O)cc2[nH]c1=O	> 100	> 100	> 100	> 100	> 100	> 100	> 100	> 100	–	–	> 100	> 100	> 100	> 100	–	> 100	> 100	> 100	–
N=c1c2ccccc2nc2oc3ccc(Cl)cc3n12	15.9	> 100	–	> 100	> 100	19.2	> 100	> 100	53.1	> 100	35.6	> 100	23.6	–	34.9	17.8	32.9	–	40.1
Cc1nn(C(=O)c2ccncc2)c2c1C(c1ccccc1O)SC(N)=N2 (stereo not given)	> 10	> 10	> 10	> 10	> 10	> 10	> 10	> 10	> 10	> 10	> 10	> 10	> 10	> 10	> 10	> 10	–	–	> 10
COc1ccc(C2C3=C(CCCC3=O)N(c3ccccc3)C3=C2C(=O)CCC3)cc1	> 100	> 100	–	> 100	> 100	–	> 100	> 100	–	> 100	–	–	> 100	–	> 100	> 100	> 100	> 100	–
CC1OC2OC3C(OCC(O)C3O)OC(=O)[C@]34CCC(C)(C)CC3C3=CCC5[C@@]6(C)C[C@H](O)[C@H](OC7OC(CO)C(O)C(O)C7OC7OC(COC(=O)CC(C)(O)CC(=O)OC1C(O)C2O)C(O)C(O)C7O)[C@@](C)(CO)C6CC[C@@]5(C)[C@]3(C)CC4 (stereo not given in full)	2.4	–	3.02	–	2.91	2.69	3.18	–	3.08	2.97	3.1	2.34	2.89	7.23	2.89	2.91	2.52	–	–
Cn1c(=O)c2c(nc3sc4ncccc4c(=O)n32)n(C)c1=O	> 100	> 100	> 100	> 100	> 100	> 100	> 100	> 100	–	> 100	> 100	> 100	> 100	> 100	> 100	> 100	> 100	> 100	–
CC(=O)OCC1OC(OC2CC3C(C)(C)C(=O)CC[C@]3(C)C3CC[C@]45C[C@]4(CCC5[C@@H](C)CC(O)C(O)C(C)(C)O)[C@]23C)C(O)C(O)C1O (stereo not given in full)	26.5	16.7	30.9	29.9	31.4	33.8	16.7	15.6	22.7	21.8	27.1	20.3	18.8	18.8	28.1	20.3	32.2	–	27.5
CCCCC/C(=N\c1nc[nH]c1C(N)=O)OCC	> 100	> 100	> 100	> 100	> 100	> 100	> 100	> 100	> 100	> 100	> 100	> 100	–	–	> 100	> 100	> 100	> 100	> 100
COc1ccc(C2S/C(=C\c3cccc([N+](=O)[O-])c3)C(=O)N2NC(=O)Cc2ccccc2)cc1 (stereo not given)	> 100	> 100	–	–	> 100	> 100	> 100	> 100	> 100	> 100	> 100	> 100	> 100	–	> 100	> 100	> 100	> 100	> 100
O=C1CCC2(c3ccc(F)cc3)Nc3ncncc3N12 (stereo not given)	> 10	> 10	> 10	> 10	> 10	–	> 10	> 10	> 10	> 10	> 10	–	> 10	–	> 10	> 10	> 10	–	> 10
Cn1c(C2CC(C)(C)c3c2c2ccccc2n3C)cc2ccccc21 (stereo not given)	> 304	> 304	–	> 304	> 304	> 304	> 304	> 304	> 304	> 304	> 304	> 304	–	–	> 304	> 304	–	–	> 304

Source: PubChem BioAssay (NCI)
